What all share (format): cell-based, human
The test system of test [1] is A549 cells. The test is described as follows: LDH leakage assay, A549. The following applies: A549, IC50 concentration of compound, 48 h; H2O2 positive control; mean ± SD, n = 3. The method, then:
(§1) One hundred microliters of culture medium was transferred to a new 96-well plate. One hundred microliters of LDH reaction solution was added to each well, and absorbance was measured at 490 nm using an ELISA plate reader (BMG Labtech, Ortenberg, Germany) after 30 min.
Background: LDH in the medium is a marker of cell lysis.

For test [2], the system named is A549 cells. The test is described as follows: Cell cycle analysis (PI staining, flow cytometry), A549. The following applies: A549, IC50 concentration, 48 h, mean ± SEM, n = 3. The method, then:
(§2) Cell cycle distribution was assessed by propidium iodide (PI) staining and flow cytometry. HeLa, MCF-7, and A549 cells were seeded in 6-well plates at a density of 1 × 10^5 cells per well and allowed to attach overnight. […] Following exposure, both adherent and floating cells were collected, washed twice with cold phosphate-buffered saline (PBS, pH 7.4), and fixed overnight in 70% cold ethanol at 4 °C. After fixation, the cells were centrifuged and resuspended in 500 µL of PI/RNase staining solution containing 50 µg/mL PI and 100 µg/mL RNase A (Sigma-Aldrich®, St. Louis, MO, USA), followed by incubation in the dark for 30 min at 37 °C. The stained samples were analyzed using a Muse™ Cell Analyzer (Merck, Millipore, Germany) equipped with a 488 nm excitation laser and a 617 nm emission filter. A minimum of 10,000 events per sample were acquired after exclusion of debris and doublets via FSC-A vs. FSC-H gating. The DNA content histograms were generated automatically, and cell populations were expressed as percentages of G0/G1, S, and G2/M phases using the Muse™ Cell Cycle Analysis Software 1.5.0.0. All assays were conducted in triplicate biological repeats (n = 3), and results were reported as mean ± SEM.

Test [3] has as its system MCF-7 cells. The test is described as follows: MTT cell viability assay, MCF-7. The procedure, abridged: (§3)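 Cells exposed to compounds at 0.5–200 µM for 48 h in DMEM with 10% FBS at 37 °C, 5% CO2; formazan dissolved in DMSO and read at 570 nm. Cytotoxicity relative to untreated control; IC50 from four-parameter logistic fit, mean of three independent measurements, triplicate samples.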

The subject of test [4] is A549 cells. The test is described as follows: Intracellular GSH/GSSG ratio, A549. The following applies: A549, IC50 concentration of compound, 48 h; H2O2 positive control; mean ± SD, n = 3. The method, then:
(§4) Intracellular reduced (GSH) and oxidized (GSSG) glutathione levels were measured using the GSH/GSSG Ratio Detection Assay Kit (Cayman Chemical, Ann Arbor, MI, USA, Cat. No: 703002) according to the manufacturer’s protocol. […] After treatment, cells were washed with cold PBS and lysed with MES buffer provided in the kit.
(§5) To prevent oxidation of GSH to GSSG during processing, samples were deproteinized using the supplied metaphosphoric acid solution and neutralized accordingly. Total glutathione and GSSG levels were measured separately by adding the appropriate buffers and reagents to the wells of a 96-well plate, followed by the addition of DTNB recycling reagent and glutathione reductase. Absorbance was read at 405 nm using a microplate reader (BMG Labtech, Germany). The amount of GSH was calculated by subtracting 2 × GSSG from the total glutathione, and the GSH/GSSG ratio was used to assess intracellular redox status.

The subject of test [5] is MCF-7 cells. The test is described as follows: Intracellular GSH/GSSG ratio, MCF-7. The following applies: MCF-7, IC50 concentration of compound, 48 h; H2O2 positive control; mean ± SD, n = 3. How it is done:
as §4, §5

Test [6] has as its system HeLa cells. The test is described as follows: MTT cell viability assay, HeLa. The procedure, abridged: as §3
Test [7] has as its system A549 cells. The test is described as follows: MTT cell viability assay, A549. The procedure, abridged:
as §3
(Tetrazolium dyes change colour on reduction, which living cells bring about.)

Test [8] relates to MCF-7 cells. The test is described as follows: LDH leakage assay, MCF-7. The following applies: MCF-7, IC50 concentration of compound, 48 h; H2O2 positive control; mean ± SD, n = 3. The method, then: as §1
For test [9], the system named is MCF-7 cells. The test is described as follows: Total oxidative status (TOS), MCF-7. The following applies: MCF-7, IC50 concentration of compound, 48 h; H2O2 250 µM positive control; mean ± SD, n = 3. How it is done: TOS were evaluated using a commercially available kit (Rel Assay Diagnostics®, Gaziantep, Turkey) according to the manufacturer’s instructions. […] The TOS assay quantifies oxidizing agents based on their ability to convert an iron (II) ion chelator complex to iron (III) ions. The results were calibrated against hydrogen peroxide (H2O2, 250 µM) as a positive control for 48 h and expressed as µmol H2O2 equivalents per liter. The analysis was performed in three independent biological replicates (n = 3).

For test [10], the system named is HeLa cells. The test is described as follows: Intracellular GSH/GSSG ratio, HeLa. The following applies: IC50 concentration of compound, 48 h, H2O2 positive control, mean ± SD, n = 3. How it is done:
as §4, §5

Test [11] relates to MCF-7 cells. The test is described as follows: Cell cycle analysis (PI staining, flow cytometry), MCF-7. The following applies: MCF-7, IC50 concentration, 48 h, mean ± SEM, n = 3. The method, then: as §2
On the technique in general: Flow cytometry measures light scatter and fluorescence of single cells or particles in a stream.

Where “and” joins values, the source holds several entries; their conditions need not be identical. Identical values can stand only once.

Regarding `O=C(O)Cn1c(=O)n(CC(=O)O)c2cc(Cl)c(Cl)cc21` [Compound 6, 2,2′-(5,6-Dichloro-2-oxo-1H-benzo[d]imidazole-1,3(2H)-diyl)diacetic Acid], the LDH in test [1] was 24.5 ± 2.0 µU/mL and 24.5 ± 2.0 ^a,b µU/mL; in test [8], 22.7 ± 1.8 µU/mL and 22.7 ± 1.8 ^a,b µU/mL. The “cells in G0/G1 phase” value in test [2] is 59.8 ± 2.0%; in test [11], 66.1 ± 1.9%. Moreover, the “cells in G2/M phase” value stood at 19.6 ± 1.4% in [2] and 14.9 ± 1.3% in test [11]. The “cells in S phase” value worked out at 20.6 ± 1.5% in test [2] and 19.0 ± 1.4% in test [11]. For the same compound, the IC50 was determined as 28.3 ± 1.63 µM in test [3] (Homo sapiens, MCF7, MTT, 48 h, mean ± SD, n = 3); 31.2 ± 1.8 µM in test [6] (Homo sapiens, HeLa, MTT, 48 h, mean ± SD, n = 3); 30.6 ± 1.76 µM in test [7] (Homo sapiens, A549, MTT, 48 h, mean ± SD, n = 3). For the same compound, the “MCF-7 Selectivity Index (SI)” value in [3] (SI = IC50 (HEK 293)/IC50 (MCF-7)) is given as 2.21. The GSH/GSSG in test [4] is 11.2 ± 1.0 nmol/mg Protein and 11.2 ± 1.0 ^a,b nmol/mg Protein; in test [5] it was 12.1 ± 1.2 nmol/mg Protein and 12.1 ± 1.2 ^a,b nmol/mg Protein; in test [10], 10.6 ± 1.1. For the same compound, the “HeLa Selectivity Index (SI)” value in test [6] (SI = IC50 (HEK 293)/IC50 (HeLa)) is reported as 2. For the same compound, the “A549 Selectivity Index (SI)” value in test [7] (SI = IC50 (HEK 293)/IC50 (A549)) is listed as 2.04. In addition, in [9], the TOS was 6.9 ± 0.5 µmol H2O2 eq/L and 6.9 ± 0.5 ^a,b µmol H2O2 eq/L.

As a reminder, the IC50 is the midpoint of a concentration-inhibition curve.

The values above are taken from PMC12735921, “Evaluation of Antiproliferative Activity and Molecular Modeling Studies of Some Novel Benzimidazolone-Bridged Hybrid Compounds” (Pharmaceuticals, 2025).
